From BindingDB's records for patent US20250195508 (University of Central Florida Research Foundation, 2025) come the findings set out here.

Molecules are shown by their SMILES. pIC50: −log10 of the molar value. A value given as a limit tells only on which side of the number the result lay.

By pIC50 is commonly meant the IC50 on a negative log10 scale, so that one unit is a factor of ten. Read a low pIC50 as a large IC50.

This experiment has as its target Ephrin type-A receptor 2 (Homo sapiens, UniProt P29317). The experiment in a line: In Vitro Biochemical Kinase Assay. An excerpt: In vitro biochemical kinase assays were done using recombinant human EPHA2. compounds were subjected to in vitro biochemical kinase assays done using recombinant human ephrin type-A receptor 2 (EPHA2) (expressed in insect cells) in a Z′-LYTE FRET-based kinase assay.

Chain of Ephrin type-A receptor 2 (P29317 whole entry): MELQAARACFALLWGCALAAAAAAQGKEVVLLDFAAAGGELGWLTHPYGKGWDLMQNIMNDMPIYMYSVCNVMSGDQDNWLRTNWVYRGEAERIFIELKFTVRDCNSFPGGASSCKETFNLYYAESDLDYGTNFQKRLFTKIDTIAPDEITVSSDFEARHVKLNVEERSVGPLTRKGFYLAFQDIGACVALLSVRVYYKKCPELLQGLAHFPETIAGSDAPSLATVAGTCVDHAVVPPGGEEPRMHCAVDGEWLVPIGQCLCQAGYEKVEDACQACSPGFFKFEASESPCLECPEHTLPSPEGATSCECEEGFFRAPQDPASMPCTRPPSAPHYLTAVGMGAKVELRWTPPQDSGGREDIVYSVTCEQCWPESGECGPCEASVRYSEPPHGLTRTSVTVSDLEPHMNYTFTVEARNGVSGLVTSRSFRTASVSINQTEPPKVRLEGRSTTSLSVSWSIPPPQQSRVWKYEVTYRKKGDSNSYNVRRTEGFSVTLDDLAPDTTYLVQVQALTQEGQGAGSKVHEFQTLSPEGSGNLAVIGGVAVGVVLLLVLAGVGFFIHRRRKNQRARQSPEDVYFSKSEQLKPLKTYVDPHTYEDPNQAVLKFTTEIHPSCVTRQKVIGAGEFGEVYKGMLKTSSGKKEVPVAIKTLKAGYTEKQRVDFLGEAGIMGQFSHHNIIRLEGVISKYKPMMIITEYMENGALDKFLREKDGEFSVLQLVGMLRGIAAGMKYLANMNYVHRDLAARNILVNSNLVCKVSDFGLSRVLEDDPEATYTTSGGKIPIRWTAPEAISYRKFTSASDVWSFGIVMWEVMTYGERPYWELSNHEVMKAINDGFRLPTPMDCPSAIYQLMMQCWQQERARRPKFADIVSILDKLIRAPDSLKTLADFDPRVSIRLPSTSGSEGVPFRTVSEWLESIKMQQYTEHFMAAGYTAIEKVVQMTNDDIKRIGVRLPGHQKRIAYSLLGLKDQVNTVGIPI

With `CCN1CCN(Cc2ccc(NC(=O)c3cncc(NC(=O)c4cncc(-c5cccs5)c4)c3)cc2C(F)(F)F)CC1` [US20250195508, Name TL5-139], the negative-log IC50 (pIC50) was less than 5.00.
The figure for `CCN1CCN(Cc2ccc(NC(=O)c3ccnc(NC(=O)c4cncc(-c5cccs5)c4)c3)cc2C(F)(F)F)CC1` [US20250195508, Name TL5-145] is less than 5.00; for `CCN1CCN(Cc2ccc(NC(=O)c3cc(NC(=O)c4cncc(-c5cccs5)c4)cc(OC)c3)cc2C(F)(F)F)CC1` [MLS000911581] it is less than 5.00.
